{"source": "patent US20230226048A1", "about": "“NEW USE OF RABEXIMOD” (Cyxone AB, priority 2020, published 2023)", "key": {"[1]": {"tested_on": "wild type and TLR4 deficient mice", "experiment": "Collagen antibody-induced arthritis (CAIA) boosted with TLR stimuli in mice, arthritis scoring", "format": "in vivo, mouse", "conditions": "for arthritis severity: 40 mg/kg subcutaneously every second day, day 5 to 15", "excerpt": "QB mice (10-20 weeks) were generated from a (BALB/cxB10.Q) F1 cross. C57BL/10ScNJ mice (Tlr4^lps-del), hereafter called Tlr4^del, were ordered from The Jackson Laboratory (The Jackson Laboratory, Bar Harbor, Me., USA). These mice have deletion of the Tlr4 gene that results in absence of mRNA and protein and is thus defective in response to LPS stimulation. These mice were crossed together with C57BL/10.Q mice from Medical Inflammation Research, Lund university, Lund, Sweden in order to generate mice expressing major histocompatibility complex (MHC) Aq. Mice were kept and bred in a climate-controlled environment with a 12 h light/dark cycle, fed standard rodent chow and water ad libitum in the animal facility of Medical Inflammation Research, Lund University, Lund, Sweden.\nLitters were genotyped for MHC using microsatellite marker D17mit230. Genotyping of Tlr4 was performed according to an earlier described method. Briefly, DNA was prepared from biopsies and primers flanking the 70 kb deletion or amplifying the wild-type sequence absent in the TLR4 deleted mice were used.\nThe mice were matched according to age and sex, and littermates were used in all experiments. All experiments were approved according to Malmö/Lund ethical committee license M107-07.\nMale mice, older than 8 weeks, were injected intravenously on day 0 with a cocktail of four monoclonal antibodies (4 mg in a total volume of 310 μl/mouse) containing M2139, CIIC1, CIIC2 and UL1 antibodies binding to J1, C1^I, D3 and U1 epitopes of CII in order to induce CAIA. Day 5 mice were injected with LPS from Escherichia coli (Sigma-Aldrich, St Louis, Mis-souri, USA), deoxycytoylate-phosphate-deoxyguanylate (CpG) DNA (sequence 1668, MWG; Eurofins MWG, Erdersberg, Germany) or lipomannan (LM) from Mycobacterium segma-tis (InvivoGen, San Diego, Calif., USA) intraperitoneally to boost disease (35-50 μg/mouse in 1 ml phosphate-buffered saline (PBS)).\nMice were blindly scored daily to every second day until the end of the experiment. […]"}, "murine arthritis model": {"tested_on": "murine arthritis model", "conditions": "murine arthritis model in mice; cited from earlier work"}, "IL-6": {"tested_on": "IL-6", "experiment": "Phase IIa clinical trial in rheumatoid arthritis patients, IL-6 assessment (PK/PD population)", "format": "in vivo, human", "conditions": "RA patients", "description": "In a phase IIa clinical trial, a total of 225 patients diagnosed with active rheumatoid arthritis were randomized to receive one of the following treatments: • 6.25 mg of Rabeximod (daily) • 15 mg of Rabeximod (daily) • 37.5 mg of Rabeximod (daily) • Placebo\nStudy drug was provided in the form of a capsule comprising rabeximod in the form of a (micronized) powder. Over 200 patients completed the study.\nThe primary aim of the study was to evaluate the safety and efficacy of\nRabeximod treatment in RA patients. The study also involved Pharmacokinetic and Pharmacodynamic assessments in a subgroup (PK/PD Population) of 36 patients. This included assessment of changes in hsCRP, TNF-α, IL-6, COMP and anti-CCP."}, "[2]": {"conditions": "cited from earlier work"}, "T cell proliferation": {"tested_on": "T cell proliferation", "experiment": "ConA-stimulated proliferation of lymph node cells from DA rats immunized with rat collagen II, [3H]-thymidine", "format": "cell-based", "conditions": "ConA 1.5 μg/ml, 48 h", "description": "draining lymph nodes collected day 9 p.i. from DA rats immunized with rat collagen II (RCII) in Freund's Incomplete Adjuvant (FIA) were used to prepare individual single cell suspensions. Lymph nodes were grinded through wire mesh and cells washed 3 times in incomplete DMEM cell culture medium. Cells were counted by trypan blue exclusion and cell suspensions of 2×10^6 cells/ml in complete DMEM prepared. 4×10^5 cells per well were seeded in flat-bottomed 96-well microtiter plates. Triplicates of each individual cell suspension were incubated with 1.5 μg/ml ConA. ConA was diluted in phosphate buffered saline, D-PBS. Spontaneous proliferation was determined by measuring proliferation in cell cultures without addition of ConA. As a positive proliferation control cells were stimulated with ConA together with 10 μl of the rabeximod vehicle, 0.01 M acetic acid. Doses of rabeximod were added in 10 μl vehicle so that the final concentrations in cell cultures ranged from 50-800 ng/ml. Cell cultures were incubated at 37° C.+5% CO2 for 48 h and 1 μCi of [^3H]-Thymidine per well was added to the cultures for the last 12 h. Cellular incorporation of [^3H]-thymidine was measured using a 1450 Microbeta Wallac Trilux Liquid Scintillation Luminescence Counter after harvesting the cells onto nitrocellulose filters.\nIndividual Inhibition Indices (1.1.) were calculated by dividing the average counts per minute (cpm) value of each triplicate stimulated with ConA and rabeximod with the average cpm value of the triplicate stimulated with ConA only. The inhibition of proliferation induced by rabeximod addition was expressed as % of the positive control (ConA only), i.e. by multiplying the inhibition indices with 100."}, "[3]": {"tested_on": "collagen-induced arthritis model", "conditions": "dark agouti rats, daily subcutaneous administration from the day of immunization; cited from earlier work"}, "[4]": {"tested_on": "human peripheral blood mononuclear cells (PBMC)", "experiment": "LPS-stimulated cytokine/chemokine release from human PBMC in vitro (multiplex, Luminex)", "format": "cell-based", "conditions": "PBMC from 7 donors", "description": "The effect of Rabeximod on the release of GM-CSF, IL-113, IL-6, IL-8, TNF-α, MCP-1, MIP-1a, MIP-1β and RANTES from human peripheral blood mononuclear cells (PBMC) in vitro was evaluated. Rabeximod was tested at two concentrations (1.25 μg/ml and 12.5 μg/ml) on PBMC's isolated from 7 donors. Human PBMCs were isolated from whole blood using a Ficoll gradient. Cells ([…]) were then plated in a volume of 0.5 ml (0.5 ml of vehicle control (1% methanol in RPMI 1640 media) or rabeximod resuspended in methanol and diluted to a concentration of […] media was added). After incubation (1 h 37° C.) with LPS (0.1 mg/ml), cells were further incubated for 18-20 h before supernatant was removed for analysis of cytokine production using cytokine multiplex assays (Biosource, Nivelles, Belgium), accord-ing to the manufacturer's instructions. Data were collected using a Luminex 100 (Luminex Corporation, Austin, Tex., USA). All samples were analyzed in duplicates and a mean value for each sample was calculated."}, "[5]": {"tested_on": "mixed lymphocytes reaction (MLR) of human donors", "experiment": "Mixed lymphocytes reaction (MLR) of human donors, 3[H]-thymidine incorporation", "format": "cell-based", "description": "Peripheral blood mononuclear cells (PBMCs) were prepared and modified for use as stimulator cells through γ-irradiation, or for use as responder cells. Rabeximod was then added to a responder and […] cell mix at various concentrations (of 10^−5, 10^−6, 10^−7 and 10^−8 M) before the cells were incubated. In the test, responder cells should proliferate more in the presence than in the absence of stimulator cells.\nNormal PBMCs were obtained from healthy volunteers at the blood bank (Shiba medical center, Tel-Hashomer). Blood donations tested negative to HBSAg, HIV, HCV, ALT, HTLV and TPHA. Twelve donors were obtained in 3 sessions following review by the Committee for Ethical Conduct in the Care and Use of Laboratory Animals of the Hebrew University, Jerusalem, the Institutional Animal Care and Use Committee (IACUC) responsible for approving Harlan Biotech (Israel) animal usage application in compliance with its respective registration under National Institues of Health (NIH) accreditation no. OPR-A01-5011. Peripheral blood mononuclear cells (PBMCs) were freshly separated from heparinized full blood by Ficoll-Hypaque (IsoPrep, Robbins Scientific) density gradient centrifugation. After two washes with PBS, cells were diluted in PBMCs medium and counted. Since MLR was conducted in two-ways format, each donor was utilized as stimulator and as responder.\nIn each session, 0.87*10^6/ml PBMCs cells from each donor were mixed and then γ-irradiated with 4000 rad (about 6.25 minutes). Cells were diluted in PBMCs medium to give the highest concentration). Further dilutions in ×2-fold were done in PBMCs medium. 50*10^6 were taken from each donor to obtain a mixture of stimulators in each experiment.\nCells were resuspended in PBMCs medium at approximately 2*10^6 cells/ml and incubated in flasks for 2 hours at 5% CO2, 37° C. Adherent cells were dis-carded while non-adherent cells in the supernatant were centrifuged at 700 g for 10 minutes. To enrich for T lymphocytes, cells were resuspended in 5% PBMCs medium and loaded on nylon wool columns (Uni-Sorb, Novamed) at 8*10^7 cells/ml, according to manufacturer instructions.\nCells were seeded in 96-well round-bottom plates at the varying ratios of stimulator vs. responder cells.\n^3[H]-Thymidine was added to the cell culture at 18 hrs before the end of the cultivation period (6 days). Cells were harvested and transferred to filters (unifilters GF/C) using the Packard filtermate Cell harvester. Following addition of scintillation fluid (MicroScint20™) to the filters, they were counted in Packard microplate scintillation β-counter. Results are expressed as Counting Per Minutes (CPM)."}, "[6]": {"tested_on": "TLR2 stimulated macrophages", "experiment": "TNF-α production by thioglycolate-recruited peritoneal macrophages after LPS or TLR2 stimuli (ELISA)", "format": "cell-based, mouse", "conditions": "12.5 ug/ml, added 0 h to +3 h after stimulus; stronger effect if administered early", "description": "The aim was to investigate whether, after stimulation, Rabeximod has the ability to decrease production of pro-inflammatory cytokines by macrophages isolated from the peritoneal cavity after thioglycolate recruitment. B10.Q mice with/without expression of functional TLR4 matched according to sex and age were used as donors of peritoneal macrophages. Mice were injected on day −5 with sterilized 3% Thioglycolate intraperitoneally. On day 0 the peritoneal cavity was washed with ice cold PBS to collect recruited cells. The cells were counted and added to plates at a final concentration of 200 000 cells/well in medium. Rabeximod diluted in a minimal amount DMSO and then DMEM to final concentration (12.5 ug/ml) was added simultaneously (h 0) or at time points+0.5 h, +1 h or +3 hours after LPS or TLR2 stimuli (Lipomannan). Cells were incubated for 24 hours before the whole plate was frozen. TNF-α ELISA was performed after one week using antibodies from e-biosciences and detected by europium. Mice were injected on […] (1 ml) intraperitoneally. […] TNFα production was determined using a ready-SET-go! […]"}}}
{"smiles": "Cc1cc2nc3c4cc(Cl)ccc4n(CC(=O)NCCN(C)C)c3nc2cc1C", "note": "[Rabeximod, 9-Chloro-2,3-dimethyl-6-(N,N-dimethylaminoethylamino-2-oxoethyl)-6H-indolo-[2,3-b]quinoxaline]", "values": [{"measurement": "arthritis severity", "setting": "[1]; TLR4 deficient mice", "result": "reduces"}, {"measurement": "activation of macrophages in animal models of arthritis", "setting": "[1]; downstream mechanism, likely TLR2 signalling pathway", "result": "inhibits"}, {"measurement": "arthritis severity", "setting": "[1]; wild type mice", "result": "reduces"}, {"measurement": "arthritogenic scoring", "setting": "murine arthritis model", "result": "statistically significant durable reductions"}, {"measurement": "paw swelling", "setting": "murine arthritis model", "result": "statistically significant durable reductions"}, {"measurement": "paw thickness", "setting": "murine arthritis model", "result": "statistically significant durable reductions"}, {"measurement": "change in IL-6 median value from baseline", "setting": "IL-6; 6.25 mg daily, Week 12", "result": "−185.0", "unit": "IU/L"}, {"measurement": "change in IL-6 median value from baseline", "setting": "IL-6; 6.25 mg daily, Week 16", "result": "−804", "unit": "IU/L"}, {"measurement": "change in IL-6 median value from baseline", "setting": "IL-6; 15 mg daily, Week 12", "result": "−1679.0", "unit": "IU/L"}, {"measurement": "change in IL-6 median value from baseline", "setting": "IL-6; 15 mg daily, Week 16", "result": "−1879", "unit": "IU/L"}, {"measurement": "change in IL-6 median value from baseline", "setting": "IL-6; 37.5 mg daily, Week 12", "result": 136.0, "unit": "IU/L"}, {"measurement": "change in IL-6 median value from baseline", "setting": "IL-6; 37.5 mg daily, Week 16", "result": "−1124", "unit": "IU/L"}, {"measurement": "fraction in plasma bound to protein", "setting": "[2]", "result": "approximately 99%"}, {"measurement": "inhibition of T cell proliferation", "setting": "T cell proliferation; 300 ng/ml", "result": "Approximately 50%"}, {"measurement": "inhibition of T cell proliferation", "setting": "T cell proliferation; 500 ng/ml", "result": "approximately 80%"}, {"measurement": "inhibition at 0.3 µg/mL", "setting": "T cell proliferation; Rattus norvegicus, T-cell, 300 ng/ml", "result": "≥ 50", "unit": "%"}, {"measurement": "inhibition at 0.5 µg/mL", "setting": "T cell proliferation; Rattus norvegicus, T-cell, 500 ng/ml", "result": "≥ 80", "unit": "%"}, {"measurement": "arthritis severity", "setting": "[3]", "result": "suppressed"}, {"measurement": "onset of clinical arthritis", "setting": "[3]", "result": "significantly delayed"}, {"measurement": "LPS-stimulated production of IL-6", "setting": "[4]; 1.25 μg/ml", "result": "significantly reduced"}, {"measurement": "LPS-stimulated production of MIP-1α", "setting": "[4]; 1.25 μg/ml", "result": "significantly reduced"}, {"measurement": "LPS-stimulated production of MIP-1β", "setting": "[4]; 1.25 μg/ml", "result": "significantly reduced"}, {"measurement": "LPS-stimulated production of TNFα", "setting": "[4]; 1.25 μg/ml", "result": "significantly reduced"}, {"measurement": "LPS-stimulated production of RANTES", "setting": "[4]; 12.5 μg/ml", "result": "all but RANTES were reduced"}, {"measurement": "LPS-stimulated production of pro-inflammatory cytokines and chemokines other than RANTES", "setting": "[4]; 12.5 μg/ml", "result": "reduced"}, {"measurement": "inhibition of MLR activity", "setting": "[5]; 10^−5 M, all responder:stimulator ratios", "result": "strong inhibitory effect"}, {"measurement": "inhibition of MLR activity", "setting": "[5]; 10^−8 M", "result": "the inhibition decreased to a lesser extent"}, {"measurement": "inhibition of MLR activity", "setting": "[5]; lower doses (10^−7, 10^−8 M)", "result": "less effective"}, {"measurement": "inhibition of MLR activity", "setting": "[5]; two highest concentrations (10^−5, 10^−6 M), all tested ratios", "result": "highly inhibitory"}, {"measurement": "TNF-α production from TLR2 stimulated macrophages", "setting": "[6]", "result": "decreases"}]}
